Laboratory results as given in PubChem BioAssay (NCI).
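Assay format: 96-well plates, 48-hour exposure. At the TGI there is no net growth.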

Columns and labels:
Experiment in all cases: NCI-60 cell line screen, 48 h
[1] = test system: MOLT-4 leukemia
[2] = test system: BT-549 breast
[3] = test system: HOP-92 NSCLC
[4] = test system: K-562 leukemia
[5] = test system: UO-31 renal
[6] = test system: SR leukemia
[7] = test system: MDA-MB-231 breast
[8] = test system: SK-OV-3 ovarian
[9] = test system: HL-60(TB) leukemia
[10] = test system: OVCAR-3 ovarian
[11] = test system: SK-MEL-28 melanoma
[12] = test system: CAKI-1 renal
[13] = test system: OVCAR-5 ovarian
[14] = test system: PC-3 prostate
[15] = test system: LOX IMVI melanoma
[16] = test system: CCRF-CEM leukemia
[17] = test system: DU-145 prostate
[18] = test system: HS 578T breast
[19] = test system: IGROV1 ovarian
[20] = test system: M14 melanoma

| Compound | TGI [1] [µM] | TGI [2] [µM] | TGI [3] [µM] | TGI [4] [µM] | TGI [5] [µM] | TGI [6] [µM] | TGI [7] [µM] | TGI [8] [µM] | TGI [9] [µM] | TGI [10] [µM] | TGI [11] [µM] | TGI [12] [µM] | TGI [13] [µM] | TGI [14] [µM] | TGI [15] [µM] | TGI [16] [µM] | TGI [17] [µM] | TGI [18] [µM] | TGI [19] [µM] | TGI [20] [µM] |
| --- | --- | --- | --- | --- | --- | --- | --- | --- | --- | --- | --- | --- | --- | --- | --- | --- | --- | --- | --- | --- |
| C=C1c2nc3ccccc3n2C=C(c2ccc(OC)cc2)N1c1ccc(OCCN2CCCCC2)cc1 | 38.6 | > 100 | > 82 | > 100 | > 48.2 | 28.6 | > 64.7 | > 100 | 20 | > 100 | > 100 | > 100 | > 100 | > 51.3 | > 44 | 10.1 | > 100 | > 100 | > 100 | > 100 |
| Cc1cccc(Nc2nc3ccccc3nc2NS(=O)(=O)c2ccc(N)cc2)c1 | 59.5 | > 100 | > 100 | > 100 | 56.6 | > 100 | > 100 | > 100 | > 100 | > 100 | > 100 | > 100 | > 100 | > 100 | > 100 | 57.6 | > 100 | > 100 | > 100 | > 100 |
| Clc1ccc(OCC2NC3CCC2CC3)cn1 (stereo not given) | 47.5 | > 100 | > 100 | 41.4 | 6.06 | 44.6 | 47.8 | > 100 | 51.9 | > 100 | > 100 | > 100 | > 100 | 78.3 | 33.4 | 77 | > 100 | > 100 | > 100 | 36.5 |
| O=C1c2ccccc2-c2nnc3c(c21)Cc1ccccc1C3 | > 10 | > 10 | > 10 | > 10 | > 10 | > 10 | > 10 | > 10 | > 10 | > 10 | > 10 | > 10 | > 10 | > 10 | > 10 | > 10 | > 10 | > 10 | > 10 | > 10 |
| O=C1CSCC(=O)Nc2ccccc2N1 | > 100 | > 100 | > 100 | > 100 | > 100 | > 100 | > 100 | > 100 | > 100 | > 100 | > 100 | > 100 | > 100 | > 100 | > 100 | > 100 | > 100 | > 100 | > 100 | > 100 |
| CC1=C(O)C(=O)C=C2C1=CC=C1[C@@]2(C)CC[C@@]2(C)C3C[C@@H](C)C(=O)[C@@H](O)[C@]3(C)CC[C@]12C (stereo not given in full) | 3.21 | 3.4 | 3.87 | 5.17 | 3.53 | 1.3 | 3.75 | 22.2 | 2.76 | 3.6 | 4.17 | 2.83 | 9.29 | 4.23 | 3.02 | 1.87 | 3.38 | > 84.8 | 3.28 | 3.26 |
| O=C1C2C3C4C1C1C2[C@H](OCc2ccccc2)C3C1[C@H]4OCc1ccccc1 (stereo not given in full) | > 100 | > 100 | 66.3 | > 100 | > 100 | > 100 | > 100 | > 100 | 50.9 | > 100 | > 100 | > 100 | 56 | > 100 | > 100 | > 100 | > 100 | 60.4 | > 100 | > 100 |
| C=C1CC[C@](C)(O)[C@@]2(C)CC[C@H]3C(=C(C)C)C(=O)C[C@]3(C)C[C@H]12 | 31.6 | > 50 | > 50 | 16.8 | > 50 | 41.1 | > 50 | > 50 | 18.9 | > 50 | > 50 | > 50 | > 50 | > 50 | 28.4 | 30.9 | > 50 | > 50 | > 50 | > 50 |
| CCCCNC(=O)OCCN=c1c2ccccc2ccc2ccccc12 | > 100 | > 100 | > 100 | > 100 | > 100 | > 100 | > 100 | > 100 | > 100 | > 100 | > 100 | > 100 | > 100 | > 100 | > 100 | > 100 | > 100 | > 100 | > 100 | > 100 |
| CC(C)(C)N(Cc1ccccc1)C(=O)/C=C\S(=O)c1ccccc1 (stereo not given) | 7.39 | 12.9 | 10.8 | > 100 | 7.71 | > 29.6 | 11.8 | 19.9 | 6.54 | 7.41 | 21.7 | 18.4 | 28.8 | 13.2 | 5.7 | > 44.9 | 13.6 | 7.19 | 17.8 | 8.91 |
